Consider four compounds from ChEMBL document CHEMBL4118074, “Design, synthesis and structure-activity relationship studies of a novel focused library of 2,3,4-substituted oxazolidines with antiproliferative activity against cancer cell lines” (Eur J Med Chem, 2017).

Molecules are shown by their SMILES.

One assay concerns MDA-MB-231. Description: Antiproliferative activity against human MDA-MB-231 cells after 48 hrs by MTT assay. In kind it is functional, cell-based. The settings on record: MDA-MB-231, 48 h. (Formazan colour is commonly taken as a measure of viable cells.)
The subject of the next assay is HL-60. Description: Antiproliferative activity against human HL60 cells after 48 hrs by MTT assay. The class given is functional, cell-based. To be noted: HL-60, 48 h.
A further assay deals with HCT-116. Description: Antiproliferative activity against human HCT116 cells after 48 hrs by MTT assay. The class given is functional, cell-based. The settings on record: HCT-116, 48 h.
The subject of a further assay is Vero. Description: Cytotoxicity against African green monkey Vero cells after 48 hrs by MTT assay. In kind it is cell-based. The settings on record: Chlorocebus sabaeus.
The next assay deals with MCF7. Put plainly: Antiproliferative activity against human MCF7 cells after 48 hrs by MTT assay. In kind it is functional, cell-based. The settings on record: MCF7, 48 h.
A further assay relates to Jurkat. Put plainly: Antiproliferative activity against human Jurkat T cells after 48 hrs by MTT assay. The class given is functional, cell-based.

As for `CC(C)(C)CC(=O)N1[C@@H](COc2ccc([N+](=O)[O-])cc2)COC1(C)C`, the half-inhibitory concentration (IC50) in the assay on MDA-MB-231 was more than 50 µM; with HL-60 it was more than 50 µM; in the assay with HCT-116, more than 50 µM; in the assay with Vero it was more than 100 µM; with MCF7, more than 50 µM; with Jurkat it was more than 50 µM.
As to `CC(C)(C)OC(=O)N[C@H](CO)COc1ccc([N+](=O)[O-])cc1`, the half-inhibitory concentration (IC50) in the assay with MDA-MB-231 was more than 50 µM; in the assay on HL-60, more than 50 µM; in the assay with HCT-116, more than 50 µM; in the assay on Vero, more than 100 µM; with MCF7, more than 50 µM.
Consider `CN1CCN(C(=O)c2ccc(OC[C@H]3COC(C)(C)N3C(=O)OC(C)(C)C)cc2)CC1`, for which the IC50 with MDA-MB-231, in the assay on HL-60, in the assay on HCT-116, with MCF7 and in the assay with Jurkat was more than 50 µM throughout.
Consider `CC(C)(C)C(=O)N1[C@@H](COc2ccc([N+](=O)[O-])cc2)COC1(C)C`, for which the IC50 in the assay with MDA-MB-231 was more than 50 µM; with HL-60, more than 50 µM; with HCT-116, more than 50 µM; in the assay on Vero, more than 100 µM; in the assay on MCF7, more than 50 µM; with Jurkat, more than 50 µM.

As a reminder, the IC50 is the concentration needed to halve the response being measured.
